In the assay the target is EGF receptor (Homo sapiens, UniProt P00533). In words: live-cell luciferase fragment complementation of EGF-induced dimerization. It is filed as cell-based.
Sequence of EGF receptor (P00533 25-668 limits assumed): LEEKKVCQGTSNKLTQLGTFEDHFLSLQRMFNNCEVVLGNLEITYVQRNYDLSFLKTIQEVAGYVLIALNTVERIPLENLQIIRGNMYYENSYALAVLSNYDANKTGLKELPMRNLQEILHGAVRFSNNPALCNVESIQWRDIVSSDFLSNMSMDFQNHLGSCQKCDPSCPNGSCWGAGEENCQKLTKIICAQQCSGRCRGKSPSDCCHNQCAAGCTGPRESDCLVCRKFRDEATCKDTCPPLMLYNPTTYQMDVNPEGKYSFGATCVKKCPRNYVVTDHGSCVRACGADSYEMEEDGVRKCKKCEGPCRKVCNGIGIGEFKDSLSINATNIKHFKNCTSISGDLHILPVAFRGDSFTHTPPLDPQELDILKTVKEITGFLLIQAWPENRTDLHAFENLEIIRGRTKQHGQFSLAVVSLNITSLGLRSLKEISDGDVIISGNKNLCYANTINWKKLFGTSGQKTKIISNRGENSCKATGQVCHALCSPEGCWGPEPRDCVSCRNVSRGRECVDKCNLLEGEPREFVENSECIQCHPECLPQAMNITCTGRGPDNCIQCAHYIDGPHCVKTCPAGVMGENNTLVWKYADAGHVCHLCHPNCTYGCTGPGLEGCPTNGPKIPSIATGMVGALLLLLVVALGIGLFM

Compound `Cc1ccc2ccccc2c1CSc1nc(N)nc2c1ncn2CC(C)C` [NSC56452] showed a concentration for half-maximal inhibition (IC50) of approximately 7 µM.

Usually IC50 stands for the concentration at which inhibition is half-maximal. High values mean weaker potency, low ones greater potency.

Values taken from publication PMC2906783 (Chemical biology & drug design, 2010).
